# Test results as given in US9447040B2, “Tricyclic compounds, compositions comprising them and uses thereof” (YISSUM RESEARCH DEVELOPMENT COMPANY OF THE HEBREW …, priority 2011, dated 2016).
# Values joined by “and” are separate entries in the source; they are usually repeats but may differ in a detail not shown here. Equal entries are not always repeated. “Also recorded” adds a separate entry of the source.
# Key:
# [1] = test system: abdominal adipose tissue; test: Intraperitoneal (i.p.) injection to mice, gross pathology and abdominal fat; assay type: in vivo
# Procedure: 42 wks old male mice (35-42 g body wt.) were i.p. injected with either vehicle (=Control, 10 mice) or with MTK-012 dissolved in that vehicle (10 mice).
# Vehicle composition: aqueous solution of 4% Tween20 (Sigma, P7949) and 20% Propylene-Glycol (Sigma, P4347).
# MTK-012 was dissolved in vehicle composition at a final concentration of 5 mg/ml.
# The mice were initially (t=0) injected a dose of 20 mg/kg, or the equivalent volume of vehicle to the controls (solid arrow in FIG. 1). Three weeks later the mice were injected a double dose of 40 mg/kg of MTK-012 or 40 mg/kg of vehicle (broken arrow in FIG. 1).
# Body weight was measured once a week; the results are shown in FIG. 1 and expressed as the % change in body weight relative to the body weight on day 0.
# At t=6 wks the animals were sacrificed and dissected for gross pathology.
# [2] = test system: s.c. adipose tissue; test: Single subcutaneous (s.c.) injection to rats, s.c. fat; assay type: in vivo, SD male rats; settings: single s.c. 25 mg/kg at 5 sites on left side, examined after 3 weeks
# Procedure: SD male rats of about 400 g body weight were s.c. injected once (t=0) following light anesthesia with Ketamine-Xylazine.
# MTK-012, at a final concentration of 10 mg/ml, was dissolved in a vehicle containing: 2.3% sodium decanoate (C10, Sigma, C4151), 2.3% sodium dodecanoate (C12, Sigma, L9755), 10% Solutol HS 15 (BASF, cat#06466701), 40% Propylene-Glycol (Sigma, P4347) and 45% Triacetin (Aldrich, cat#525073).
# The injection of 1 ml MTK-012 (=25 mg/kg) was performed as follows: the left side of the rats body was shaved and s.c. injections, 0.2 ml each, were administered at 5 sites, equally distributed along the left side of the rats. The rats were sacrificed after 3 weeks and inner part of their skin was examined. It is evident that the s.c. adipose tissue was reduced (visibly shown) in the treated rats (FIGS. 3B and 3D), as manifested by the exposure of the underneath blood vessels, as compared with the same anatomical area in FIGS. 3A and 3C. It should be noted that although the injection was performed unilaterally, the effect expand to the entire subcutis.
# [3] = test system: nap WAT; test: Intra-nap fat-pad injection to Psammomys on high-fat diet, nap WAT; assay type: in vivo
# Procedure: Ten 2-month old female pasmmomys were subjected to high-fat diet for 5 weeks prior to commencement of experiment.
# 0.1 ml vehicle (2.3% sodium decanoate (C10, Sigma, C4151), 2.3% sodium dodecanoate (C12, Sigma, L9755), 10% Solutol HS 15 (BASF, cat#06466701), 40% Propylene-Glycol (Sigma, P4347) and 45% Triacetin (Aldrich, cat#525073))
# 0.1 ml MTK-012 (concentration of 4 mg/ml in above vehicle).
# 0.1 ml MTK-013 (concentration of 4 mg/ml in above vehicle).
# Intra nap fat-pad injections of each composition were administered to animals in each treatment groups (3, 3, and 4 animals in each treatment group respectively), twice a week for 2 weeks, while on high-fat diet. All animals were sacrificed after 4 days from last injection.
# Table 1 below provides the results of nap WAT weight after 4 days from treatment.
# [4] = biological target: protein kinase CDC42-binding-protein-kinase-alpha (CDC42BPA or MRCKA) (Homo sapiens, UniProt Q5VT25); test: screening against 191 different protein kinases; assay type: biochemical; settings: screened against 191 different protein kinases
# protein kinase CDC42-binding-protein-kinase-alpha (CDC42BPA or MRCKA), sequence (Q5VT25 whole entry): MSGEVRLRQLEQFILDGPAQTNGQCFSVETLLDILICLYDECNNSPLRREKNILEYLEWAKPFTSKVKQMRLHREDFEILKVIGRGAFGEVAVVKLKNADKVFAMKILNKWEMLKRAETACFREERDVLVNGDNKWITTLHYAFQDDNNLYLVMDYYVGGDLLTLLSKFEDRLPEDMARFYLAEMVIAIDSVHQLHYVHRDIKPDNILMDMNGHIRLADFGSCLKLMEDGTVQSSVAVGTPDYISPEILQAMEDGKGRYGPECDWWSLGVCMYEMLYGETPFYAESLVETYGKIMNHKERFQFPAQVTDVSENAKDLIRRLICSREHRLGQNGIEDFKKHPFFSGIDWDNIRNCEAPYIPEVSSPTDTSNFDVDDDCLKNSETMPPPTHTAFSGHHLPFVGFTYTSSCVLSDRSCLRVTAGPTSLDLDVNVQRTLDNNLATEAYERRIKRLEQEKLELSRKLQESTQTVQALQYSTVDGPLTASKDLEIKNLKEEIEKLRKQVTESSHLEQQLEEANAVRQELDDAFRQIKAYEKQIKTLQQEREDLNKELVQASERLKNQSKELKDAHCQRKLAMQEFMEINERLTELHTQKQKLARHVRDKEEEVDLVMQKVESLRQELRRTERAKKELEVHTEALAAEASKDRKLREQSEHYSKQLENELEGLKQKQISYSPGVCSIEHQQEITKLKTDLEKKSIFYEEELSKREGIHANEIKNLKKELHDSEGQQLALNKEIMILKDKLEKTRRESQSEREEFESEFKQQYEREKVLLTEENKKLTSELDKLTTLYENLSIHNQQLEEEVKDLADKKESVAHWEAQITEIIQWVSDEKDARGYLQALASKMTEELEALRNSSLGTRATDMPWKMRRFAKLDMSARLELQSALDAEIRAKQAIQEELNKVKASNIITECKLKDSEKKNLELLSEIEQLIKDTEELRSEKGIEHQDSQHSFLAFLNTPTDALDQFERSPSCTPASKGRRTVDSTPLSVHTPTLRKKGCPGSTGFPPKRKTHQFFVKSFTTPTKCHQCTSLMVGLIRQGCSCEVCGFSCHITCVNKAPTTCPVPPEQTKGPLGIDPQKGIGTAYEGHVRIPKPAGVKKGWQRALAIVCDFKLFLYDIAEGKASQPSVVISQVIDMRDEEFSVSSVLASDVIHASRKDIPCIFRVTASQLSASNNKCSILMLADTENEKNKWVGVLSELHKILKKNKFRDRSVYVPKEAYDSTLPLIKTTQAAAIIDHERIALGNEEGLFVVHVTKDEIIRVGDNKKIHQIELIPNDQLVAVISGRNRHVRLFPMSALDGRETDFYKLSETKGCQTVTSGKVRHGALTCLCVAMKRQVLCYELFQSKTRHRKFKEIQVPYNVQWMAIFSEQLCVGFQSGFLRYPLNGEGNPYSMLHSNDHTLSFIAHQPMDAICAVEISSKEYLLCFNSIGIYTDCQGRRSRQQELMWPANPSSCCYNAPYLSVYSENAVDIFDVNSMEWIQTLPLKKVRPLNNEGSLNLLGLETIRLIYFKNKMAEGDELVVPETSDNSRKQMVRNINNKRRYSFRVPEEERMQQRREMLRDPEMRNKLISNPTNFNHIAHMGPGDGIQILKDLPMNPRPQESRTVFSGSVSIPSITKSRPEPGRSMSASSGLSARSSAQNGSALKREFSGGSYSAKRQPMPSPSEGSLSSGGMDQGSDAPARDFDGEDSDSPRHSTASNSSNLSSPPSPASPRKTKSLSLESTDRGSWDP
structure (smiles),measurement,setting,value
"C[N+](C)(C)CCCCCn1c2ccc(Br)cc2c2cc(Br)ccc21.[Cl-] [MTK-012, 5-(3,6-dibromo-9H-carbazol-9-yl)-N,N,N-trimethylpentan-1-aminium chloride]",general condition of treated animals,"[1]; 42 wks old male mice, i.p. 20 mg/kg at t=0 and 40 mg/kg three weeks later","well and active, similar to the controls"
same,abdominal adipose tissue / abdominal fat-mass,"[1]; mice at t=6 wks, i.p. 20 mg/kg then 40 mg/kg, vs vehicle control",reduction in abdominal fat-mass; also recorded: ablation of the abdominal adipose tissue
same,"gross pathology, changes other than adipose tissue","[1]; mice sacrificed at t=6 wks, i.p. 20 mg/kg then 40 mg/kg",No apparent change
same,s.c. adipose tissue (subcutaneous fat),[2],reduction in subcutaneous fat; also recorded: reduced
same,"Nap WAT (g), single animals","[3]; 0.1 ml of 4 mg/ml intra nap fat-pad, twice a week for 2 weeks, 4 days after last injection",3.7 g and 4.1 g and 4.6 g and 3.0 g
same,Nap WAT Average (g) ± SEM,"[3]; 0.1 ml of 4 mg/ml intra nap fat-pad, twice a week for 2 weeks, 4 days after last injection, vehicle 5.30 ± 0.21",3.85 ± 0.34 g
same,reduction in WAT as compared with vehicle,[3]; nap WAT weight 4 days after treatment,significant reduction
same,inhibition of protein kinase CDC42BPA (MRCKA) in screen,[4],significantly selective inhibition
